Test results reported in PubChem BioAssay (NCI).
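Values below derive from 48-hour exposures of cells grown in 96-well plates, with endpoints linearly interpolated between the two concentrations bracketing the appropriate inhibition level. At the GI50, growth is halved. TGI: concentration producing complete growth inhibition.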

Tests used:
Assay in all cases: inhibition of tumour cell growth, NCI panel, 48 h
A498 renal = tested on: A498 renal
A549 NSCLC = tested on: A549 NSCLC
ACHN renal = tested on: ACHN renal
CAKI-1 renal = tested on: CAKI-1 renal
COLO 205 colon = tested on: COLO 205 colon
DU-145 prostate = tested on: DU-145 prostate
EKVX NSCLC = tested on: EKVX NSCLC
HCC-2998 colon = tested on: HCC-2998 colon
HCT-116 colon = tested on: HCT-116 colon
HCT-15 colon = tested on: HCT-15 colon
HL-60(TB) leukemia = tested on: HL-60(TB) leukemia
HOP-62 NSCLC = tested on: HOP-62 NSCLC
HOP-92 NSCLC = tested on: HOP-92 NSCLC
HS 578T breast = tested on: HS 578T breast
HT29 colon = tested on: HT29 colon
KM12 colon = tested on: KM12 colon
M14 melanoma = tested on: M14 melanoma
MALME-3M melanoma = tested on: MALME-3M melanoma
MCF7 breast = tested on: MCF7 breast
MDA-MB-231 breast = tested on: MDA-MB-231 breast
MDA-MB-435 = tested on: MDA-MB-435
NCI-H226 lung = tested on: NCI-H226 lung
NCI-H23 lung = tested on: NCI-H23 lung
NCI-H460 lung = tested on: NCI-H460 lung
NCI-H522 lung = tested on: NCI-H522 lung
NCI/ADR-RES ovarian = tested on: NCI/ADR-RES ovarian
OVCAR-3 ovarian = tested on: OVCAR-3 ovarian
OVCAR-4 ovarian = tested on: OVCAR-4 ovarian
OVCAR-5 ovarian = tested on: OVCAR-5 ovarian
OVCAR-8 ovarian = tested on: OVCAR-8 ovarian
PC-3 prostate = tested on: PC-3 prostate
RPMI-8226 leukemia = tested on: RPMI-8226 leukemia
RXF 393 renal = tested on: RXF 393 renal
SF-268 CNS = tested on: SF-268 CNS
SF-295 CNS = tested on: SF-295 CNS
SF-539 CNS = tested on: SF-539 CNS
SK-MEL-2 melanoma = tested on: SK-MEL-2 melanoma
SK-MEL-28 melanoma = tested on: SK-MEL-28 melanoma
SK-MEL-5 melanoma = tested on: SK-MEL-5 melanoma
SN12C renal = tested on: SN12C renal
SNB-19 CNS = tested on: SNB-19 CNS
SNB-75 CNS = tested on: SNB-75 CNS
SR leukemia = tested on: SR leukemia
SW-620 colon = tested on: SW-620 colon
T-47D breast = tested on: T-47D breast
TK-10 renal = tested on: TK-10 renal
U251 CNS = tested on: U251 CNS
UACC-257 melanoma = tested on: UACC-257 melanoma
UACC-62 melanoma = tested on: UACC-62 melanoma

CC(C)N(CCNc1nc(C(Cl)(Cl)Cl)nc2cc(Cl)ccc12)C(C)C
GI50 (A498 renal): 1270 nM | TGI (A498 renal): 2660 nM | GI50 (A549 NSCLC): 1670 nM | TGI (A549 NSCLC): 3.15 µM | GI50 (ACHN renal): 1290 nM | TGI (ACHN renal): 2660 nM | GI50 (CAKI-1 renal): 1600 nM | TGI (CAKI-1 renal): 3.17 µM | GI50 (COLO 205 colon): 1800 nM | TGI (COLO 205 colon): 3.61 µM | GI50 (DU-145 prostate): 1610 nM | TGI (DU-145 prostate): 3.76 µM | GI50 (EKVX NSCLC): 1570 nM | TGI (EKVX NSCLC): 4.32 µM | GI50 (HCC-2998 colon): 1340 nM | TGI (HCC-2998 colon): 2860 nM | GI50 (HCT-116 colon): 1310 nM | TGI (HCT-116 colon): 2660 nM | GI50 (HCT-15 colon): 1120 nM | TGI (HCT-15 colon): 2480 nM | GI50 (HL-60(TB) leukemia): 1520 nM | TGI (HL-60(TB) leukemia): 3.6 µM | GI50 (HOP-62 NSCLC): 1600 nM | TGI (HOP-62 NSCLC): 3.12 µM | GI50 (HOP-92 NSCLC): 1010 nM | TGI (HOP-92 NSCLC): 3.17 µM | GI50 (HS 578T breast): 1560 nM | TGI (HS 578T breast): 3.99 µM | GI50 (HT29 colon): 523 nM | TGI (HT29 colon): 1850 nM | GI50 (KM12 colon): 1320 nM | TGI (KM12 colon): 2830 nM | GI50 (M14 melanoma): 1580 nM | TGI (M14 melanoma): 3.19 µM | GI50 (MALME-3M melanoma): 1830 nM | TGI (MALME-3M melanoma): 3.98 µM | GI50 (MCF7 breast): 1540 nM | TGI (MCF7 breast): 3.05 µM | GI50 (MDA-MB-231 breast): 1100 nM | TGI (MDA-MB-231 breast): 2460 nM | GI50 (MDA-MB-435): 1710 nM | TGI (MDA-MB-435): 3.47 µM | GI50 (NCI-H226 lung): 1680 nM | TGI (NCI-H226 lung): 3.57 µM | GI50 (NCI-H23 lung): 1610 nM | TGI (NCI-H23 lung): 3.47 µM | GI50 (NCI-H460 lung): 1130 nM | TGI (NCI-H460 lung): 2600 nM | GI50 (NCI-H522 lung): 1160 nM | TGI (NCI-H522 lung): 2630 nM | GI50 (NCI/ADR-RES ovarian): 1540 nM | TGI (NCI/ADR-RES ovarian): 3.39 µM | GI50 (OVCAR-3 ovarian): 1680 nM | TGI (OVCAR-3 ovarian): 3.66 µM | GI50 (OVCAR-4 ovarian): 1350 nM | TGI (OVCAR-4 ovarian): 2960 nM | GI50 (OVCAR-5 ovarian): 1160 nM | TGI (OVCAR-5 ovarian): 2480 nM | GI50 (OVCAR-8 ovarian): 1830 nM | TGI (OVCAR-8 ovarian): 3.4 µM | GI50 (PC-3 prostate): 1150 nM | TGI (PC-3 prostate): 2730 nM | GI50 (RPMI-8226 leukemia): 1190 nM | TGI (RPMI-8226 leukemia): 3.18 µM | GI50 (RXF 393 renal): 1410 nM | TGI (RXF 393 renal): 2780 nM | GI50 (SF-268 CNS): 1970 nM | TGI (SF-268 CNS): 4.44 µM | GI50 (SF-295 CNS): 1730 nM | TGI (SF-295 CNS): 3.66 µM | GI50 (SF-539 CNS): 1820 nM | TGI (SF-539 CNS): 3.38 µM | GI50 (SK-MEL-2 melanoma): 1760 nM | TGI (SK-MEL-2 melanoma): 3.63 µM | GI50 (SK-MEL-28 melanoma): 1800 nM | TGI (SK-MEL-28 melanoma): 3.38 µM | GI50 (SK-MEL-5 melanoma): 1560 nM | TGI (SK-MEL-5 melanoma): 2930 nM | GI50 (SN12C renal): 1690 nM | TGI (SN12C renal): 3.76 µM | GI50 (SNB-19 CNS): 1900 nM | TGI (SNB-19 CNS): 4.78 µM | GI50 (SNB-75 CNS): 1840 nM | TGI (SNB-75 CNS): 3.84 µM | GI50 (SR leukemia): 926 nM | TGI (SR leukemia): 3.11 µM | GI50 (SW-620 colon): 1480 nM | TGI (SW-620 colon): 3.09 µM | GI50 (T-47D breast): 2240 nM | TGI (T-47D breast): 5.08 µM | GI50 (TK-10 renal): 1460 nM | TGI (TK-10 renal): 2880 nM | GI50 (U251 CNS): 1210 nM | TGI (U251 CNS): 2530 nM | GI50 (UACC-257 melanoma): 1930 nM | TGI (UACC-257 melanoma): 3.49 µM | GI50 (UACC-62 melanoma): 1720 nM | TGI (UACC-62 melanoma): 3.22 µM
